Activity calls are given as the source filed them. The rule behind the calls is not given here.
Key:
Assay type in all cases: functional, organism-based
Trypanosoma cruzi [1] = test: Antiparasitic activity against Trypanosoma cruzi Y trypomastigotes assessed as lysis of parasite at 250 ug/mL after 24 hrs
Leishmania braziliensis [2] = test: Antiparasitic activity against Leishmania braziliensis at 25 ug/mL
Leishmania amazonensis [3] = test: Antiparasitic activity against Leishmania amazonensis at 25 ug/mL
Trypanosoma cruzi [4] = test: Antiparasitic activity against Trypanosoma cruzi Y trypomastigotes assessed as lysis of parasite after 24 hrs
Leishmania amazonensis [5] = test: Antiparasitic activity against Leishmania amazonensis assessed as lysis of parasite at 100 ug/mL
Leishmania donovani [6] = test: Antiparasitic activity against Leishmania donovani at 25 ug/mL
Leishmania donovani [7] = test: Antiparasitic activity against Leishmania donovani assessed as lysis of parasite at 100 ug/mL
Leishmania braziliensis [8] = test: Antiparasitic activity against Leishmania braziliensis assessed as lysis of parasite at 100 ug/mL
Leishmania amazonensis [9] = test: Antiparasitic activity against Leishmania amazonensis assessed as lysis of parasite at 5 ug/mL
Leishmania donovani [10] = test: Antiparasitic activity against Leishmania donovani assessed as lysis of parasite at 5 ug/mL
Leishmania braziliensis [11] = test: Antiparasitic activity against Leishmania braziliensis assessed as lysis of parasite at 5 ug/mL

Compound: CN(C)c1ccc(C(=C2C=CC(=[N+](C)C)C=C2)c2ccc(N(C)C)cc2)cc1
- Activity (Trypanosoma cruzi [1]): Active

Compound: CC(C)=CCC/C(C)=C/CC1=C(O)C(=O)C(C)(CC=C(C)C)CC1=O (stereo not given)
- Activity (Leishmania braziliensis [2]): Active
- Activity (Leishmania amazonensis [3]): Active
- Activity (Trypanosoma cruzi [4]): inactive
- Activity (Leishmania amazonensis [5]): Active
- Activity (Leishmania donovani [6]): Active
- Activity (Leishmania donovani [7]): Active
- Activity (Leishmania braziliensis [8]): Active

Compound: N=C(N)c1ccc(OCCCCCOc2ccc(C(=N)N)cc2)cc1
- Activity (Leishmania amazonensis [9]): Active
- Activity (Leishmania donovani [10]): Active
- Activity (Leishmania braziliensis [11]): Active

Compound: MEGLUMINE ANTIMONATE
- Activity (Leishmania amazonensis [5]): 40%
- Activity (Leishmania donovani [7]): 40%
- Activity (Leishmania braziliensis [8]): 40%

Compound: CC(C)=CCCC1(C)C=CC2=C(O1)C(=O)C(C)=C(CC=C(C)C)C2=O (stereo not given)
- Activity (Trypanosoma cruzi [4]): inactive
